molecular target: recombinant Mcl-1 (residues 172-327) (Homo sapiens (Human), UniProt Q07820); test: Fluorescence polarization anisotropy competition assay (FITC-Bak or FITC-Bim BH3 peptide) with Mcl-1; format: binding; conditions: not given
Sequence (Q07820 172-327): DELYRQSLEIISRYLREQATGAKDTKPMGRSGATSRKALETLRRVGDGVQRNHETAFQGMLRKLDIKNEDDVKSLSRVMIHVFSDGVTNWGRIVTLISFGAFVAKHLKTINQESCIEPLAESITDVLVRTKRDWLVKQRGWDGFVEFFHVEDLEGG

Structure (SMILES)	Ki [nM]
COC(=O)CNC(=O)c1[nH]c2ccccc2c1CCCOc1cc(C)c(Cl)c(C)c1 [I-2, methyl (3-(3-(4-chloro-3,5-dimethylphenoxy)propyl)-1H-indole-2-carbonyl)glycinate]	1000 to 9990

same assay, conditions: Table 2; Ki bins given in nM; FITC-Bak or FITC-Bim peptide competition; Ki converted from IC50; read-out: Ki for Inhibition of Mcl-1

Ki [nM]	Structure (SMILES)
< 50	Cc1cc(OCCCc2c3n(c4c(-c5c(C)nn(C)c5C)c(Cl)ccc24)CCCN(c2cc(CN4CCCC4)cc(C(=O)O)c2)C3=O)cc(C)c1Cl [I-225, 3-(8-chloro-11-(3-(4-chloro-3,5-dimethylphenoxy)propyl)-1-oxo-7-(1,3,5-trimethyl-1H-pyrazol-4-yl)-4,5-dihydro-1H-[1,4]diazepino[1,2-a]indol-2(3H)-yl)-5-(pyrrolidin-1-ylmethyl)benzoic acid]
< 50	Cc1cc(OCCCc2c(C(=O)NCC(=O)N[C@@H](CC(C)C)C(=O)O)[nH]c3c(-c4c(C)nn(C)c4C)cccc23)cc(C)c1Cl [I-292, (3-(3-(4-chloro-3,5-dimethylphenoxy)propyl)-7-(1,3,5-trimethyl-1H-pyrazol-4-yl)-1H-indole-2-carbonyl)glycyl-L-leucine]
< 50	Cc1cc(OCCCc2c(C(=O)NCC(=O)N[C@@H](Cc3ccccc3)C(=O)O)[nH]c3c(-c4c(C)nn(C)c4C)cccc23)cc(C)c1Cl [I-291, (3-(3-(4-chloro-3,5-dimethylphenoxy)propyl)-7-(1,3,5-trimethyl-1H-pyrazol-4-yl)-1H-indole-2-carbonyl)glycyl-L-phenylalanine]
< 50	Cc1cc(OCCCc2c3n(c4c(-c5c(C)nn(C)c5C)cccc24)CCCN(Cc2cc(C(=O)O)cc([N+](=O)[O-])c2)C3=O)cc(C)c1Cl [I-86, 3-((11-(3-(4-chloro-3,5-dimethylphenoxy)propyl)-1-oxo-7-(1,3,5-trimethyl-1H-pyrazol-4-yl)-4,5-dihydro-1H-[1,4]diazepino[1,2-a]indol-2(3H)-yl)methyl)-5-nitrobenzoic acid]
< 50	Cc1cc(OCCCc2c3n(c4c(-c5c(C)nn(C)c5C)c(Cl)ccc24)CCCN(c2cc(CN(C)C)cc(C(=O)O)c2)C3=O)cc(C)c1Cl [I-226, 3-(8-chloro-11-(3-(4-chloro-3,5-dimethylphenoxy)propyl)-1-oxo-7-(1,3,5-trimethyl-1H-pyrazol-4-yl)-4,5-dihydro-1H-[1,4]diazepino[1,2-a]indol-2(3H)-yl)-5-((dimethylamino)methyl)benzoic acid]
< 50	Cc1cc(OCCCc2c(C(=O)NCC(=O)O)[nH]c3c(-c4c(C)nn(C)c4C)cccc23)cc(C)c1Cl [I-286, (3-(3-(4-chloro-3,5-dimethylphenoxy)propyl)-7-(1,3,5-trimethyl-1H-pyrazol-4-yl)-1H-indole-2-carbonyl)glycine]
< 50	Cc1cc(OCCCc2c(C(=O)Nc3cncc(C(=O)O)c3)[nH]c3c(-c4c(C)nn(C)c4C)cccc23)cc(C)c1Cl [I-186, 5-(3-(3-(4-chloro-3,5-dimethylphenoxy)propyl)-7-(1,3,5-trimethyl-1H-pyrazol-4-yl)-1H-indole-2-carboxamido)nicotinic acid]
< 50	Cc1cc(OCCCc2c3n(c4c(-c5c(C)nn(C)c5C)c(Cl)ccc24)C[C@@H](C)N(c2ccc(C(=O)O)cc2)C3=O)cc(C)c1Cl [I-156, (R)-4-(7-chloro-10-(3-(4-chloro-3,5-dimethylphenoxy)propyl)-3-methyl-1-oxo-6-(1,3,5-trimethyl-1H-pyrazol-4-yl)-3,4-dihydropyrazino[1,2-a]indol-2(1H)-yl)benzoic acid]
< 50	Cc1cc(OCCCc2c3n(c4c(-c5c(C)nn(C)c5C)c(Cl)ccc24)CCCN(c2cc(C(=O)O)cc(N(C)CCN(C)C)c2)C3=O)cc(C)c1Cl [I-211, 3-(8-chloro-11-(3-(4-chloro-3,5-dimethylphenoxy)propyl)-1-oxo-7-(1,3,5-trimethyl-1H-pyrazol-4-yl)-4,5-dihydro-1H-[1,4]diazepino[1,2-a]indol-2(3H)-yl)-5-((2-(dimethylamino)ethyl)(methyl)amino)benzoic acid]
< 50	Cc1cc(OCCCc2c3n(c4c(-c5c(C)nn(C)c5C)c(Cl)ccc24)CCCN(CC(=O)O)C3=O)cc(C)c1Cl [I-304, 2-(8-chloro-11-(3-(4-chloro-3,5-dimethylphenoxy)propyl)-1-oxo-7-(1,3,5-trimethyl-1H-pyrazol-4-yl)-4,5-dihydro-1H-[1,4]diazepino[1,2-a]indol-2(3H)-yl)acetic acid]
< 50	Cc1ccc(N2CCCn3c(c(CCCOc4cc(C)c(Cl)c(C)c4)c4ccc(Cl)c(-c5c(C)nn(C)c5C)c43)C2=O)cc1C(=O)O [I-98, 5-(8-chloro-11-(3-(4-chloro-3,5-dimethylphenoxy)propyl)-1-oxo-7-(1,3,5-trimethyl-1H-pyrazol-4-yl)-4,5-dihydro-1H-[1,4]diazepino[1,2-a]indol-2(3H)-yl)-2-methylbenzoic acid]
< 50	Cc1cc(OCCCc2c3n(c4c(-c5c(C)nn(C)c5C)c(Cl)ccc24)CCCN(c2cc(C(=O)O)cc4c2ncn4C)C3=O)cc(C)c1Cl [I-365, 4-(8-chloro-11-(3-(4-chloro-3,5-dimethylphenoxy)propyl)-1-oxo-7-(1,3,5-trimethyl-1H-pyrazol-4-yl)-4,5-dihydro-1H-[1,4]diazepino[1,2-a]indol-2(3H)-yl)-1-methyl-1H-benzo[d]imidazole-6-carboxylic acid]
< 50	Cc1cc(OCCCc2c3n(c4c(-c5c(C)nn(C)c5C)c(Cl)ccc24)CCCN(c2cc(C(=O)O)cc(-c4cccnc4C)c2)C3=O)cc(C)c1Cl [I-232, 3-(8-chloro-11-(3-(4-chloro-3,5-dimethylphenoxy)propyl)-1-oxo-7-(1,3,5-trimethyl-1H-pyrazol-4-yl)-4,5-dihydro-1H-[1,4]diazepino[1,2-a]indol-2(3H)-yl)-5-(2-methylpyridin-3-yl)benzoic acid]
< 50	Cc1cc(OCCCc2c3n(c4c(-c5c(C)nn(C)c5C)c(Cl)ccc24)[C@H](C)CN(c2cc(C(=O)O)c4ccn(C)c4c2)C3=O)cc(C)c1Cl [I-174, (R)-6-(7-chloro-10-(3-(4-chloro-3,5-dimethylphenoxy)propyl)-4-methyl-1-oxo-6-(1,3,5-trimethyl-1H-pyrazol-4-yl)-3,4-dihydropyrazino[1,2-a]indol-2(1H)-yl)-1-methyl-1H-indole-4-carboxylic acid]
< 50	Cc1nn(C)c(C)c1-c1cccc2c(CCCOc3cccc4ccccc34)c(C(=O)N(C)c3cccc(C(=O)O)c3)[nH]c12 [I-195, 3-(N-methyl-3-(3-(naphthalen-1-yloxy)propyl)-7-(1,3,5-trimethyl-1H-pyrazol-4-yl)-1H-indole-2-carboxamido)benzoic acid]

Structure (SMILES)	Ki [nM]
Cc1cc(OCCCc2c3n(c4c(-c5c(C)nn(C)c5C)c(Cl)ccc24)[C@H](C)CN(Cc2cccc(C(=O)O)c2)C3=O)cc(C)c1Cl [I-155, (R)-3-((7-chloro-10-(3-(4-chloro-3,5-dimethylphenoxy)propyl)-4-methyl-1-oxo-6-(1,3,5-trimethyl-1H-pyrazol-4-yl)-3,4-dihydropyrazino[1,2-a]indol-2(1H)-yl)methyl)benzoic acid]	< 50
Cc1cc(OCCCc2c3n(c4c(-c5c(C)nn(C)c5C)c(Cl)ccc24)CCCN(Cc2cc(C(=O)O)cc(Cl)n2)C3=O)cc(C)c1Cl [I-349, 2-chloro-6-((8-chloro-1-(3-(4-chloro-3,5-dimethylphenoxy)propyl)-1-oxo-7-(1,3,5-trimethyl-1H-pyrazol-4-yl)-4,5-dihydro-1H-[1,4]diazepino[1,2-a]indol-2(3H)-yl)methyl)isonicotinic acid]	< 50
Cc1cc(OCCCc2c(C(=O)NCc3cc(C(=O)O)cc(NCCC(C)C)n3)[nH]c3c(-c4c(C)nn(C)c4C)c(Cl)ccc23)cc(C)c1Cl [I-283, 2-((6-chloro-3-(3-(4-chloro-3,5-dimethylphenoxy)propyl)-7-(1,3,5-trimethyl-1H-pyrazol-4-yl)-1H-indole-2-carboxamido)methyl)-6-(isopentylamino)isonicotinic acid]	< 50
CC/N=C(/NCCCN(C)C)n1nc(C)c(-c2cccc3c(CCCOc4cc(C)c(Cl)c(C)c4)c(C(=O)NCc4cccc(C(=O)O)c4)[nH]c23)c1C [I-70, 3-((3-(3-(4-chloro-3,5-dimethylphenoxy)propyl)-7-(1-(N-(3-(dimethylamino)propyl)-N′-ethylcarbamimidoyl)-3,5-dimethyl-1H-pyrazol-4-yl)-1H-indole-2-carboxamido)methyl)benzoic acid]	51 to 100
Cc1cc(OCCCc2c3n(c4c(-c5c(C)nn(C)c5C)c(Cl)ccc24)CCCN(Cc2cc(CCNC(=O)CC(C)C)cc(C(=O)O)c2)C3=O)cc(C)c1Cl [I-307, 3-((8-chloro-11-(3-(4-chloro-3,5-dimethylphenoxy)propyl)-1-oxo-7-(1,3,5-trimethyl-1H-pyrazol-4-yl)-4,5-dihydro-1H-[1,4]diazepino[1,2-a]indol-2(3H)-yl)methyl)-5-(2-(3-methylbutanamido)ethyl)benzoic acid]	< 50
Cc1cc(OCCCc2c3n(c4c(-c5c(C)nn(C)c5C)cccc24)CCCN(Cc2cc(C(=O)O)cc(N4CCCC4)c2)C3=O)cc(C)c1Cl [I-84, 3-((11-(3-(4-chloro-3,5-dimethylphenoxy)propyl)-1-oxo-7-(1,3,5-trimethyl-1H-pyrazol-4-yl)-4,5-dihydro-1H-[1,4]diazepino[1,2-a]indol-2(3H)-yl)methyl)-5-(pyrrolidin-1-yl)benzoic acid]	101 to 299

same assay, conditions: Table 2; Ki bins given in μM; FITC-Bak or FITC-Bim peptide competition; Ki converted from IC50; read-out: Ki for Inhibition of Mcl-1

Structure (SMILES)	Ki [nM]
Cc1cc(OCCCc2c(C(=O)N3CCC(NC(=O)c4cccc(Oc5ccccc5)c4)CC3)[nH]c3ccccc23)cc(C)c1Cl [I-259, N-(1-(3-(3-(4-chloro-3,5-dimethylphenoxy)propyl)-1H-indole-2-carbonyl)piperidin-4-yl)-3-phenoxybenzamide]	1000 to 9990
Cc1cc(OCCCc2c(C(=O)N3CCN(c4ccc(C(=O)O)cc4)CC3)[nH]c3cc(Cl)ccc23)cc(C)c1Cl [I-51, 4-(4-(6-chloro-3-(3-(4-chloro-3,5-dimethylphenoxy)propyl)-1H-indole-2-carbonyl)piperazin-1-yl)benzoic acid]	1000 to 9990
